Measurements: the supplement of paper PMC10307832

What was measured:
Experiment in all cases: relative viability (nuclei count vs DMSO), 5 days (fraction); higher = more cells survive
[1] = compound: C1=CC(=CC=C1NC(=S)NNC2=C(C=C(C=C2[N+](=O)[O-])C(F)(F)F)[N+](=O)[O-])F [Kobe2602] + COc1cccc2cc(-c3nc([C@H]4CC[C@H](C(=O)O)CC4)n4ncnc(N)c34)[nH]c12 [OSI-027] (partner 0.5 µM)
Outline: (§1)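 Relative viability was taken as the ratio of nuclei in treated wells to nuclei in vehicle wells. Lung cancer cell lines in 1536-well plates received compounds by pin tool one day after seeding, either one drug alone or a fixed anchor-drug dose plus five library-drug doses (not always all listed) in √10 steps. Nuclei were counted on 4× images after 5 days of treatment, and values are medians of duplicate plates.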

[2] = compound: C1=CC(=CC=C1NC(=S)NNC2=C(C=C(C=C2[N+](=O)[O-])C(F)(F)F)[N+](=O)[O-])F [Kobe2602] + Cc1cc(Nc2cc(N3CCN(C)CC3)nc(Sc3ccc(NC(=O)C4CC4)cc3)n2)n[nH]1 [Tozasertib] (partner 0.1 µM)
Outline: as §1

[3] = compound: C1=CC(=CC=C1NC(=S)NNC2=C(C=C(C=C2[N+](=O)[O-])C(F)(F)F)[N+](=O)[O-])F [Kobe2602] + N=C(N)NC(=N)NCCc1ccccc1 [Phenformin] (partner 250 µM)
Outline: as §1

[4] = compound: COc1cc2nccc(Oc3ccc(NC(=O)C4(C(=O)Nc5ccc(F)cc5)CC4)cc3)c2cc1OC [Cabozantinib] + CS(=O)(=O)N1CCN(Cc2cc3nc(-c4cccc5[nH]ncc45)nc(N4CCOCC4)c3s2)CC1 [Pictilisib] (partner 1 µM)
Outline: as §1

UMC-11 gave a relative viability ([1]; first compound 0.2 µM) of 0.461, a relative viability ([1]; first compound 0.6325 µM) of 0.537 and a relative viability ([1]; first compound 2 µM) of 0.539. It also gave a relative viability ([1]; first compound 6.325 µM) of 0.459, a relative viability ([1]; first compound 20 µM) of 0.467 and a relative viability ([2]; first compound 0.2 µM) of 0.215. The relative viability ([2]; first compound 0.6325 µM) was 0.219, the relative viability ([2]; first compound 2 µM) was 0.189 and the relative viability ([2]; first compound 6.325 µM) was 0.197. For the same cell line, the relative viability ([2]; first compound 20 µM) was 0.211, the relative viability ([3]; first compound 0.2 µM) was 0.358 and the relative viability ([3]; first compound 0.6325 µM) was 0.336. It also gave a relative viability ([3]; first compound 2 µM) of 0.334, a relative viability ([3]; first compound 6.325 µM) of 0.335 and a relative viability ([3]; first compound 20 µM) of 0.306. It also gave a relative viability ([4]; first compound 0.02 µM) of 0.804, a relative viability ([4]; first compound 0.06325 µM) of 0.96 and a relative viability ([4]; first compound 0.2 µM) of 0.8. It also gave a relative viability ([4]; first compound 0.6325 µM) of 0.782 and a relative viability ([4]; first compound 2 µM) of 0.76.
